Source: patent publication US20250122183A1 (Pfizer Inc., priority 2023, published 2025)
Read-outs that look alike come from different tables or passages of the source.

Legend:
Type in all cases: biochemical
Settings in all cases: replicate number in parentheses
KAT8 Full length enzyme = KAT8 Full length enzyme (Homo sapiens (Human), UniProt Q9H7Z6); experiment: KAT8 assay (SAMDI-MS acetylation of H3 1-21 peptide)
[1] = target: KAT7+JADE1+EAF6+ING5 4 protein complex (Homo sapiens (Human), UniProt O95251); experiment: KAT7 JADE1 assay (SAMDI-MS acetylation of H3 1-21 peptide)
KAT6A Full length enzyme = KAT6A Full length enzyme (Homo sapiens (Human), UniProt Q92794); experiment: KAT6A assay (SAMDI-MS acetylation of H3 1-21 peptide)
[2] = Morrison equation fit, read-out: KAT8 Ki (nM) (replicate number)
[3] = Morrison equation fit, read-out: KAT7 JADE1 Ki (nM) (replicate number)
[4] = Morrison equation fit, read-out: KAT6A Ki (nM) (replicate number)
[5] = read-out: KAT8 Ki (nM) (replicate)
[6] = read-out: KAT7 JADE1 Ki (nM) (replicate)
[7] = read-out: KAT6A Ki (nM) (replicate)

Chain of KAT8 Full length enzyme (Q9H7Z6 whole entry): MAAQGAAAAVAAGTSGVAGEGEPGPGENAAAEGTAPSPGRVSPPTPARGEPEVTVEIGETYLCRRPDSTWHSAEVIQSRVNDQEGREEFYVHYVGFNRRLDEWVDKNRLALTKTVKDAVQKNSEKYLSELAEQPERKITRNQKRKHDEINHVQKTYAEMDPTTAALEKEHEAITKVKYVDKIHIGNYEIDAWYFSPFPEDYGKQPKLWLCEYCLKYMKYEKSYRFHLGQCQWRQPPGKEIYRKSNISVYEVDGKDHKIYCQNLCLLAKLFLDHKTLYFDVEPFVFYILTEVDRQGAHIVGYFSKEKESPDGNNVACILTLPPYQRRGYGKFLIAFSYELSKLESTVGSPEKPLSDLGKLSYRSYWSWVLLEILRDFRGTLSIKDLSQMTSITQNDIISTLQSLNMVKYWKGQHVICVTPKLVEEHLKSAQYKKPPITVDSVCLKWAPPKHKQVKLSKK
Chain of KAT6A Full length enzyme (Q92794 other isoform, or with tags, fused parts or gaps): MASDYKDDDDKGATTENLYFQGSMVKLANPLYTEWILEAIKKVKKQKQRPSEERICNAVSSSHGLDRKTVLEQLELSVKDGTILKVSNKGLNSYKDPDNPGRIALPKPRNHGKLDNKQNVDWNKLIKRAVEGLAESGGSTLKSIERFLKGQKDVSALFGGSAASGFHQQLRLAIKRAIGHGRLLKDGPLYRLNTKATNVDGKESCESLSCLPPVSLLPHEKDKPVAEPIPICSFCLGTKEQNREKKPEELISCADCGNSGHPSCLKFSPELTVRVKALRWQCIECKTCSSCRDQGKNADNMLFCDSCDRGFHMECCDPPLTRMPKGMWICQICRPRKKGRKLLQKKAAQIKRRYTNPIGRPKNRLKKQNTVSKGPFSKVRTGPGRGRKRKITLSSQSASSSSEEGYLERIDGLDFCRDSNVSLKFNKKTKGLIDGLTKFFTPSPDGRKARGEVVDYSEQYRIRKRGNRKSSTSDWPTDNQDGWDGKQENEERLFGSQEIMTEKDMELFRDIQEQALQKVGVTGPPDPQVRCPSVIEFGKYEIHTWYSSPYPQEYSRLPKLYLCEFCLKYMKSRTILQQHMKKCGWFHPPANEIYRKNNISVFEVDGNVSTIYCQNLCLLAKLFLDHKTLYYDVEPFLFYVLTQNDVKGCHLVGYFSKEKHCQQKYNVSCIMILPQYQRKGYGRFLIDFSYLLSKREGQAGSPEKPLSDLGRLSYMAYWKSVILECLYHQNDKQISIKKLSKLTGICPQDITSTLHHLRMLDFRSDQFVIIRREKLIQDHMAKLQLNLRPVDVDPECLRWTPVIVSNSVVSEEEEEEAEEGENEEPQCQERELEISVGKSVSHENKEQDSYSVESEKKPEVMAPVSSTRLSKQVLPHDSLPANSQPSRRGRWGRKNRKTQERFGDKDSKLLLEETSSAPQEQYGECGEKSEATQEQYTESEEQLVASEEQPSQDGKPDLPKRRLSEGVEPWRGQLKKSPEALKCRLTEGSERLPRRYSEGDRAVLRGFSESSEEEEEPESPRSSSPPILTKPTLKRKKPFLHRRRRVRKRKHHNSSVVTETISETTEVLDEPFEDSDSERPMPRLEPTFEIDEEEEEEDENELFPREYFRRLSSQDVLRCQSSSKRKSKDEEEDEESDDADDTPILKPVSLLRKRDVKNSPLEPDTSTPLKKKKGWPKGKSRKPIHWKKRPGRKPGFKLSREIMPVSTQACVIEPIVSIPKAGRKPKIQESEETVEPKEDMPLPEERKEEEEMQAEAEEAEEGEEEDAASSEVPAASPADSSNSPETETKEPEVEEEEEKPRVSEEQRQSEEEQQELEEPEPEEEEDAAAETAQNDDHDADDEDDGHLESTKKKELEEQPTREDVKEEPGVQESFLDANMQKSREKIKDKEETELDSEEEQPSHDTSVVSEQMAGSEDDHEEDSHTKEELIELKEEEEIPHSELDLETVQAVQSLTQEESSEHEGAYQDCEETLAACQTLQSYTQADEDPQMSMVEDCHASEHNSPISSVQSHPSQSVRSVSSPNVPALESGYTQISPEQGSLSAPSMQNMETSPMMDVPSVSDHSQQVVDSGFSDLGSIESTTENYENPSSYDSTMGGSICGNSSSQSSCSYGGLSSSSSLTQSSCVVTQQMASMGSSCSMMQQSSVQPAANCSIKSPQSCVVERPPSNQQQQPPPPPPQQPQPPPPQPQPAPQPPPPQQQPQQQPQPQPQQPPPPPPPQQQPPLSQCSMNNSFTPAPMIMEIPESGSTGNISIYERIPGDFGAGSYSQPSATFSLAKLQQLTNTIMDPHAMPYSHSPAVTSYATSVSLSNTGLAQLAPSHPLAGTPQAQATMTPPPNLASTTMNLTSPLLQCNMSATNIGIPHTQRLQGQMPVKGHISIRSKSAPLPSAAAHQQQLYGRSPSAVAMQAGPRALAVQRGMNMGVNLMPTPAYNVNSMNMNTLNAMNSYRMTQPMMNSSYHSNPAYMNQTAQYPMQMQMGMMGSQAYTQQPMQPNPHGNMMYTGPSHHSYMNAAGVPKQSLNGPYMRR

COc1cc2c(NS(=O)(=O)c3c(OC)cc(C4CCCN(C)C4)cc3OC)noc2cc1Nc1cc(C2CC2)n[nH]1 (single isomer, unassigned) [Example 149, N-{6-[(3-cyclopropyl-1H-pyrazol-5-yl)amino]-5-methoxy-1,2-benzoxazol-3-yl}-2,6-dimethoxy-4-(1-methylpiperidin-3-yl)benzene-1-sulfonamide] gave a Ki (KAT8 Full length enzyme; [2]) of 19000 nM, a Ki [1, 3] of 5.3 nM and a Ki (KAT6A Full length enzyme; [4]) of 0.6 nM.

COc1cc2c(NS(=O)(=O)c3c(OC)cc(C4CCCN(C)C4)cc3OC)noc2cc1Nc1cc(C2CC2)n[nH]1 (single isomer, unassigned) [Example 150, N-{6-[(3-cyclopropyl-1 H-pyrazol-5-yl)amino]-5-methoxy-1,2-benzoxazol-3-yl}-2,6-dimethoxy-4-(1-methylpiperidin-3-yl)benzene-1-sulfonamide] gave a Ki (KAT8 Full length enzyme; [2]) of 10300 nM, a Ki [1, 3] of 6.3 nM and a Ki (KAT6A Full length enzyme; [4]) of 0.8 nM.

With COc1cc2c(NS(=O)(=O)c3c(OC)cc(C(C)OC)cc3OC)noc2cc1Nc1cc(C2CC2)[nH]n1 (single isomer, unassigned) [Example 272, N-{6-[(5-cyclopropyl-1H-pyrazol-3-yl)amino]-5-methoxy-1,2-benzoxazol-3-yl}-2,6-dimethoxy-4-(1-methoxyethyl)benzene-1-sulfonamide] the Ki (KAT8 Full length enzyme; [5]) was 2650 nM, the Ki [1, 6] was 5 nM and the Ki (KAT6A Full length enzyme; [7]) was 0.7 nM.

COc1cc2c(NS(=O)(=O)c3c(OC)cc(C(C)OC)cc3OC)noc2cc1Nc1cc(C2CC2)[nH]n1 (single isomer, unassigned) [Example 273, N-{6-[(5-cyclopropyl-1H-pyrazol-3-yl)amino]-5-methoxy-1,2-benzoxazol-3-yl}-2,6-dimethoxy-4-(1-methoxyethyl)benzene-1-sulfonamide] gave a Ki (KAT8 Full length enzyme; [5]) of 2020 nM, a Ki [1, 6] of 4.7 nM and a Ki (KAT6A Full length enzyme; [7]) of 0.6 nM.

COc1cc2c(NS(=O)(=O)c3c(OC)cc(CN(C)C)cc3OC)noc2cc1Nc1cc(C2CC2)n[nH]1 [Example 144, N-{6-[(3-cyclopropyl-1 H-pyrazol-5-yl)amino]-5-methoxy-1,2-benzoxazol-3-yl}-4-[(dimethylamino)methyl]-2,6-dimethoxybenzene-1-sulfonamide] was tested, and the Ki (KAT8 Full length enzyme; [2]) was 2780 nM, the Ki [1, 3] was 10.2 nM and the Ki (KAT6A Full length enzyme; [4]) was 1.8 nM.

COc1cc2c(NS(=O)(=O)c3c(OC)cc([C@@H]4COCCO4)cc3OC)noc2cc1Nc1cc(C2CC2)n[nH]1 [Example 145] showed a Ki (KAT8 Full length enzyme; [2]) of 1510 nM, a Ki [1, 3] of 9.2 nM and a Ki (KAT6A Full length enzyme; [4]) of 1.8 nM.

In the case of COc1cc2c(NS(=O)(=O)c3c(OC)cc(-c4nccc(C)n4)cc3OC)noc2cc1Nc1cc(C2CC2)n[nH]1 [Example 214, N-{6-[(3-cyclopropyl-1H-pyrazol-5-yl)amino]-5-methoxy-1,2-benzoxazol-3-yl}-2,6-dimethoxy-4-(4-methylpyrimidin-2-yl)benzene-1-sulfonamide], the Ki (KAT8 Full length enzyme; [2]) was 1720 nM, the Ki [1, 3] was 4.3 nM and the Ki (KAT6A Full length enzyme; [4]) was 0.7 nM.

COc1cc2c(NS(=O)(=O)c3c(OC)cc(-c4ccc(C)cn4)cc3OC)noc2cc1Nc1cc(C2CC2)n[nH]1 [Example 215, N-{6-[(3-cyclopropyl-1H-pyrazol-5-yl)amino]-5-methoxy-1,2-benzoxazol-3-yl}-2,6-dimethoxy-4-(5-methylpyridin-2-yl)benzene-1-sulfonamide] gave a Ki (KAT8 Full length enzyme; [2]) of 994 nM, a Ki [1, 3] of 4.2 nM and a Ki (KAT6A Full length enzyme; [4]) of 0.4 nM.

In the case of COc1cc2c(NS(=O)(=O)c3c(OC)cc(-c4cccn(C)c4=O)cc3OC)noc2cc1Nc1cc(C2CC2)n[nH]1 [Example 221, N-{6-[(3-cyclopropyl-1H-pyrazol-5-yl)amino]-5-methoxy-1,2-benzoxazol-3-yl}-2,6-dimethoxy-4-(1-methyl-2-oxo-1,2-dihydropyridin-3-yl)benzene-1-sulfonamide], the Ki (KAT8 Full length enzyme; [2]) was 1490 nM, the Ki [1, 3] was 6.2 nM and the Ki (KAT6A Full length enzyme; [4]) was 0.7 nM.

CCc1cc(Nc2cc3onc(NS(=O)(=O)c4c(OC)cc(-c5cccc(C)n5)cc4OC)c3cc2OC)[nH]n1 [Example 231, N-{6-[(3-ethyl-1H-pyrazol-5-yl)amino]-5-methoxy-1,2-benzoxazol-3-yl}-2,6-dimethoxy-4-(6-methylpyridin-2-yl)benzene-1-sulfonamide] gave a Ki (KAT8 Full length enzyme; [2]) of 859 nM, a Ki [1, 3] of 8.8 nM and a Ki (KAT6A Full length enzyme; [4]) of 1.1 nM.

CCc1cc(Nc2cc3onc(NS(=O)(=O)c4c(OC)cc(-c5cnc(C)cn5)cc4OC)c3cc2OC)[nH]n1 [Example 232, N-{6-[(3-ethyl-1H-pyrazol-5-yl)amino]-5-methoxy-1,2-benzoxazol-3-yl}-2,6-dimethoxy-4-(5-methylpyrazin-2-yl)benzene-1-sulfonamide] gave a Ki (KAT8 Full length enzyme; [2]) of 2620 nM, a Ki [1, 3] of 6.4 nM and a Ki (KAT6A Full length enzyme; [4]) of 0.6 nM.

In the case of CCc1cc(Nc2cc3onc(NS(=O)(=O)c4c(OC)cc(-c5cn(C)cn5)cc4OC)c3cc2OC)[nH]n1 [Example 238, N-{6-[(3-ethyl-1H-pyrazol-5-yl)amino]-5-methoxy-1,2-benzoxazol-3-yl}-2,6-dimethoxy-4-(1-methyl-1H-imidazol-4-yl)benzene-1-sulfonamide], the Ki [1, 3] was 12.7 nM and the Ki (KAT6A Full length enzyme; [4]) was 1.2 nM.

With COc1cc2c(NS(=O)(=O)c3c(OC)cc(N4CC(F)C4)cc3OC)noc2cc1Nc1cc(C2CC2)n[nH]1 [Example 252, N-{6-[(3-cyclopropyl-1H-pyrazol-5-yl)amino]-5-methoxy-1,2-benzoxazol-3-yl}-4-(3-fluoroazetidin-1-yl)-2,6-dimethoxybenzene-1-sulfonamide] the Ki [1, 6] was 5.7 nM and the Ki (KAT6A Full length enzyme; [7]) was 0.8 nM.

With COc1cc2c(NS(=O)(=O)c3c(OC)cc(N4CC(OC)C4)cc3OC)noc2cc1Nc1cc(C2CC2)n[nH]1 [Example 253, N-{6-[(3-cyclopropyl-1H-pyrazol-5-yl)amino]-5-methoxy-1,2-benzoxazol-3-yl}-2,6-dimethoxy-4-(3-methoxyazetidin-1-yl)benzene-1-sulfonamide] the Ki [1, 6] was 5 nM and the Ki (KAT6A Full length enzyme; [7]) was 0.6 nM.

With COc1cc2c(NS(=O)(=O)c3c(OC)cc(N4C(=O)CCC45CCC5)cc3OC)noc2cc1Nc1cc(C2CC2)n[nH]1 [Example 255, N-{6-[(3-cyclopropyl-1 H-pyrazol-5-yl)amino]-5-methoxy-1,2-benzoxazol-3-yl}-2,6-dimethoxy-4-(6-oxo-5-azaspiro[3.4]octan-5-yl)benzene-1-sulfonamide] the Ki [1, 6] was 4.2 nM and the Ki (KAT6A Full length enzyme; [7]) was 0.8 nM.

With COc1cc2c(NS(=O)(=O)c3c(OC)cc(C(=O)N4CCC(F)(F)C4)cc3OC)noc2cc1Nc1cc(C2CC2)n[nH]1 [Example 257, N-{6-[(3-cyclopropyl-1H-pyrazol-5-yl)amino]-5-methoxy-1,2-benzoxazol-3-yl}-4-(3,3-difluoropyrrolidine-1-carbonyl)-2,6-dimethoxybenzene-1-sulfonamide] the Ki [1, 6] was 9.5 nM and the Ki (KAT6A Full length enzyme; [7]) was 1.6 nM.

For COc1cc2c(NS(=O)(=O)c3c(OC)cc(C(=O)N4CC[C@@H](F)C4)cc3OC)noc2cc1Nc1cc(C2CC2)n[nH]1 [Example 258, N-{6-[(3-cyclopropyl-1H-pyrazol-5-yl)amino]-5-methoxy-1,2-benzoxazol-3-yl}-4-[(3R)-3-fluoropyrrolidine-1-carbonyl]-2,6-dimethoxybenzene-1-sulfonamide], the Ki [1, 6] was 5.9 nM and the Ki (KAT6A Full length enzyme; [7]) was 1 nM.

Work on COc1cc2c(NS(=O)(=O)c3c(OC)cc(C(=O)N4CCC[C@@H](F)C4)cc3OC)noc2cc1Nc1cc(C2CC2)n[nH]1 [Example 260, N-{6-[(3-cyclopropyl-1H-pyrazol-5-yl)amino]-5-methoxy-1,2-benzoxazol-3-yl}-4-[(3R)-3-fluoropiperidine-1-carbonyl]-2,6-dimethoxybenzene-1-sulfonamide] yielded a Ki [1, 6] of 6.7 nM and a Ki (KAT6A Full length enzyme; [7]) of 1 nM.

Compound COc1cc2c(NS(=O)(=O)c3c(OC)cc(C(=O)N4CCC[C@H](F)C4)cc3OC)noc2cc1Nc1cc(C2CC2)n[nH]1 [Example 261, N-{6-[(3-cyclopropyl-1H-pyrazol-5-yl)amino]-5-methoxy-1,2-benzoxazol-3-yl}-4-[(3S)-3-fluoropiperidine-1-carbonyl]-2,6-dimethoxybenzene-1-sulfonamide] has a Ki [1, 6] of 6.7 nM and a Ki (KAT6A Full length enzyme; [7]) of 1.1 nM.

COc1cc2c(NS(=O)(=O)c3c(OC)cc(C(=O)N4CC(F)C4)cc3OC)noc2cc1Nc1cc(C2CC2)n[nH]1 [Example 262, N-{6-[(3-cyclopropyl-1H-pyrazol-5-yl)amino]-5-methoxy-1,2-benzoxazol-3-yl}-4-(3-fluoroazetidine-1-carbonyl)-2,6-dimethoxybenzene-1-sulfonamide] gave a Ki [1, 6] of 8.1 nM and a Ki (KAT6A Full length enzyme; [7]) of 1 nM.

Work on COc1cc2c(NS(=O)(=O)c3c(OC)cc(C(=O)N4CCC(F)(F)CC4)cc3OC)noc2cc1Nc1cc(C2CC2)n[nH]1 [Example 263, N-{6-[(3-cyclopropyl-1H-pyrazol-5-yl)amino]-5-methoxy-1,2-benzoxazol-3-yl}-4-(4,4-difluoropiperidine-1-carbonyl)-2,6-dimethoxybenzene-1-sulfonamide] yielded a Ki [1, 6] of 9.8 nM and a Ki (KAT6A Full length enzyme; [7]) of 1.4 nM.

COc1cc2c(NS(=O)(=O)c3c(OC)cc(C(=O)N4CC(F)(F)C4)cc3OC)noc2cc1Nc1cc(C2CC2)n[nH]1 [Example 264, N-{6-[(3-cyclopropyl-1H-pyrazol-5-yl)amino]-5-methoxy-1,2-benzoxazol-3-yl}-4-(3,3-difluoroazetidine-1-carbonyl)-2,6-dimethoxybenzene-1-sulfonamide] was tested, and the Ki [1, 6] was 17.6 nM and the Ki (KAT6A Full length enzyme; [7]) was 2.3 nM.

In the case of COc1cc2c(NS(=O)(=O)c3c(OC)cc(C4CCO4)cc3OC)noc2cc1Nc1cc(C2CC2)n[nH]1 (centres unmarked) [Example 276, N-{6-[(3-cyclopropyl-1H-pyrazol-5-yl)amino]-5-methoxy-1,2-benzoxazol-3-yl}-2,6-dimethoxy-4-(oxetan-2-yl)benzene-1-sulfonamide], the Ki [1, 6] was 16.8 nM and the Ki (KAT6A Full length enzyme; [7]) was 1.3 nM.

“N-{6-[(3-cyclopropyl-1 H-pyrazol-5-yl)amino]-5-methoxy-1,2-benzoxazol-3-yl}-4-(4,4-difluoro-1-methylpiperidin-3-yl)-2,6-dimethoxybenzene-1-sulfonamide [Example 176]” was tested, and the Ki [1, 3] was 2.7 nM and the Ki (KAT6A Full length enzyme; [4]) was 1 nM.
